Article PMC4114247 (Cancer research, 2009)
Entries after “also recorded” stand apart in the source; their conditions may differ.

Legend:
[1] = molecular target: PSMA on human prostate cancer LNCaP cells (Homo sapiens, UniProt Q04609); experiment: Saturation binding analysis on LNCaP cells
[2] = Stability in blood plasma; assay type: in vitro ADME; details: data not shown
[3] = test system: NCr-nu/nu mice bearing PC3 xenografts; experiment: Mouse tissue distribution, PC3 xenografts; assay type: in vivo; details: PSMA deficient PC3 xenografts
[4] = test system: PC3 cells (PSMA negative); experiment: Direct binding to PC3 cells; details: 3 nM radioligand, 1 hour; PC3 cells lack PSMA
[5] = molecular target: LNCaP cells (PSMA positive) (Homo sapiens, UniProt Q04609); experiment: Direct binding to LNCaP cells
Chain of LNCaP cells (PSMA positive) (Q04609 whole entry): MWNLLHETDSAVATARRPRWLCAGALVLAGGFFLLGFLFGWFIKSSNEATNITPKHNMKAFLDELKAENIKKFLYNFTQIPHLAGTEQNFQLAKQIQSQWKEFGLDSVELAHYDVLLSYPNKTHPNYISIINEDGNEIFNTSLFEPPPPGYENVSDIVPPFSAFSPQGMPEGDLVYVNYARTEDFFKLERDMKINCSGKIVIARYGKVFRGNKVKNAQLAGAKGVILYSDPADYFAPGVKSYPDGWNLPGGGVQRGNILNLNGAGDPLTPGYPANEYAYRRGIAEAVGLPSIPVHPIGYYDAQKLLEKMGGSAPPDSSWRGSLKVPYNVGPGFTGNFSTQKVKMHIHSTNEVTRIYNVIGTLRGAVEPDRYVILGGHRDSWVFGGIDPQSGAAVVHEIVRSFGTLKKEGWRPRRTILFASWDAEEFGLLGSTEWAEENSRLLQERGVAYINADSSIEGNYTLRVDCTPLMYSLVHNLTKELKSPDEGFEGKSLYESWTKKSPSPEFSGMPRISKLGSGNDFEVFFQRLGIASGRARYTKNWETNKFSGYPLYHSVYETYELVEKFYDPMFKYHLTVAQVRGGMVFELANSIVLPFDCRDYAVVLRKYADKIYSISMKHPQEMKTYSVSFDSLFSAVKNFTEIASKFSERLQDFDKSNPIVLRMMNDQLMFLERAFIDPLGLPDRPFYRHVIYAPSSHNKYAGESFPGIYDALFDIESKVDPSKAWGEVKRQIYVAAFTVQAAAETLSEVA

[6] = Stability in liver microsomes; assay type: in vitro ADME; details: data not shown
[7] = test system: LNCaP cells; experiment: Internalization into LNCaP cells; assay type: cell-based, human; details: 100 nM, 0–2 hours
[8] = test system: NCr nude mice bearing LNCaP xenografts; experiment: Mouse tissue distribution, LNCaP xenografts; assay type: in vivo; details: for Ratio Tumor:Blood / Ratio Tumor:Skeletal Muscle: ratio based on the %ID/g
[9] = test system: mice bearing LNCaP xenografts; experiment: SPECT/CT imaging, LNCaP xenografts; assay type: in vivo, mouse; details: 4 hr after injection
[10] = test system: PC3 PIP (PSMA +) tumors; details: mouse, in vivo
[11] = co-injected with 50 mg/kg PMPA, 2 hours

Chain of PSMA on human prostate cancer LNCaP cells (Q04609 whole entry): as above

O=C(O)CC[C@H](NC(=O)N[C@@H](CCCCNC(=O)Nc1ccc(I)cc1)C(=O)O)C(=O)O [MIP-1095, (S)-2-(3-((S)-1-carboxy-5-(3-(4-iodophenyl)ureido)pentyl)ureido)pentanedioic acid]
Kd [1]: 810 ± 390 pM
Greater affinity of MIP-1095 over MIP-1072 ([1]; saturation binding and NAALADase inhibition studies): approximately 5 fold

O=C(O)CC[C@H](NC(=O)N[C@@H](CCCCNCc1ccc(I)cc1)C(=O)O)C(=O)O [[^123I]MIP-1072, (S)-2-(3-((S)-1-carboxy-5-(4–iodobenzylamino)pentyl)ureido)pentanedioic acid]
Stability in blood plasma [2]: stable
Localization to PC3 tumors [3]: not to the PSMA deficient PC3 tumors
Binding to PC3 cells [4]: no binding; also recorded: not to the PSMA deficient PC3 cells
Binding to LNCaP cells in the presence of non-radiolabeled compound or PMPA ([5]; 3 nM radioligand with 10 µM non-radiolabeled compound or 10 µM PMPA): abolished; also recorded: inhibited
Binding to LNCaP cells ([5]; 3 nM radioligand, 1 hour, room temperature): bound
Stability in liver microsomes [6]: stable
Internalization into LNCaP cells ([7]; 4 °C): but not at 4 °C
Internalization into LNCaP cells ([7]; 37 °C): internalized; also recorded: time dependent increase in radioactivity associated with the cellular pellet
Tissue distribution: Adipose ([8]; 0.25 hr after injection): 1.45 ± 0.27 %ID/g
Tissue distribution: Blood ([8]; 0.25 hr after injection): 2.59 ± 0.24 %ID/g
Tissue distribution: Bone ([8]; 0.25 hr after injection): 0.69 ± 0.15 %ID/g
Tissue distribution: Brain ([8]; 0.25 hr after injection): 0.08 ± 0.02 %ID/g
Tissue distribution: Heart ([8]; 0.25 hr after injection): 1.25 ± 0.22 %ID/g
Tissue distribution: Kidneys ([8]; 0.25 hr after injection): 90.1 ± 20.2 %ID/g
Tissue distribution: Lg Intestine ([8]; 0.25 hr after injection): 0.41 ± 0.08 %ID/g
Tissue distribution: Liver ([8]; 0.25 hr after injection): 2.26 ± 0.56 %ID/g
Tissue distribution: Lungs ([8]; 0.25 hr after injection): 2.34 ± 0.61 %ID/g
Tissue distribution: Sk.Muscle ([8]; 0.25 hr after injection): 0.8 ± 0.18 %ID/g
Tissue distribution: Sm Intestine ([8]; 0.25 hr after injection): 0.83 ± 0.1 %ID/g
Tissue distribution: Spleen ([8]; 0.25 hr after injection): 4.28 ± 1.67 %ID/g
Tissue distribution: Stomach ([8]; 0.25 hr after injection): 0.69 ± 0.17 %ID/g
Tissue distribution: Testes ([8]; 0.25 hr after injection): 0.91 ± 0.24 %ID/g
Tissue distribution: Tumor (LNCaP xenograft) ([8]; 0.25 hr after injection): 12.9 ± 3.3 %ID/g
Ratio Tumor:Blood ([8]; 0.25 hr): 4.97
Ratio Tumor:Skeletal Muscle ([8]; 0.25 hr): 16.2
Tissue distribution: Adipose ([8]; 1 hr after injection): 0.74 ± 0.28 %ID/g
Tissue distribution: Blood ([8]; 1 hr after injection): 0.47 ± 0.15 %ID/g
Tissue distribution: Bone ([8]; 1 hr after injection): 0.25 ± 0.07 %ID/g
Tissue distribution: Brain ([8]; 1 hr after injection): 0.04 ± 0.01 %ID/g
Tissue distribution: Heart ([8]; 1 hr after injection): 0.31 ± 0.08 %ID/g
Tissue distribution: Kidneys ([8]; 1 hr after injection): 151 ± 26 %ID/g
Tissue distribution: Lg Intestine ([8]; 1 hr after injection): 0.15 ± 0.04 %ID/g
Tissue distribution: Liver ([8]; 1 hr after injection): 2.22 ± 0.43 %ID/g
Tissue distribution: Lungs ([8]; 1 hr after injection): 0.86 ± 0.24 %ID/g
Tissue distribution: Sk.Muscle ([8]; 1 hr after injection): 0.35 ± 0.17 %ID/g
Tissue distribution: Sm Intestine ([8]; 1 hr after injection): 0.41 ± 0.12 %ID/g
Tissue distribution: Spleen ([8]; 1 hr after injection): 1.91 ± 0.85 %ID/g
Tissue distribution: Stomach ([8]; 1 hr after injection): 0.26 ± 0.03 %ID/g
Tissue distribution: Testes ([8]; 1 hr after injection): 0.58 ± 0.19 %ID/g
Tissue distribution: Tumor (LNCaP xenograft) ([8]; 1 hr after injection): 17.4 ± 6.3 %ID/g
Ratio Tumor:Blood ([8]; 1 hr): 37.1
Ratio Tumor:Skeletal Muscle ([8]; 1 hr): 50.0
Tissue distribution: Adipose ([8]; 2 hr after injection): 0.46 ± 0.27 %ID/g
Tissue distribution: Blood ([8]; 2 hr after injection): 0.21 ± 0.04 %ID/g
Tissue distribution: Bone ([8]; 2 hr after injection): 0.17 ± 0.08 %ID/g
Tissue distribution: Brain ([8]; 2 hr after injection): 0.04 ± 0.01 %ID/g
Tissue distribution: Heart ([8]; 2 hr after injection): 0.19 ± 0.07 %ID/g
Tissue distribution: Kidneys ([8]; 2 hr after injection): 159 ± 46 %ID/g
Tissue distribution: Lg Intestine ([8]; 2 hr after injection): 0.28 ± 0.12 %ID/g
Tissue distribution: Liver ([8]; 2 hr after injection): 2.84 ± 0.63 %ID/g
Tissue distribution: Lungs ([8]; 2 hr after injection): 0.4 ± 0.19 %ID/g
Tissue distribution: Sk.Muscle ([8]; 2 hr after injection): 0.2 ± 0.1 %ID/g
Tissue distribution: Sm Intestine ([8]; 2 hr after injection): 0.35 ± 0.1 %ID/g
Tissue distribution: Spleen ([8]; 2 hr after injection): 0.75 ± 0.36 %ID/g
Tissue distribution: Stomach ([8]; 2 hr after injection): 0.21 ± 0.06 %ID/g
Tissue distribution: Testes ([8]; 2 hr after injection): 0.43 ± 0.16 %ID/g
Tissue distribution: Tumor (LNCaP xenograft) ([8]; 2 hr after injection): 14.0 ± 6.9 %ID/g
Ratio Tumor:Blood ([8]; 2 hr): 65.4
Ratio Tumor:Skeletal Muscle ([8]; 2 hr): 70.2
Tissue distribution: Adipose ([8]; 4 hr after injection): 0.12 ± 0.16 %ID/g
Tissue distribution: Bone ([8]; 4 hr after injection): 0.1 ± 0.18 %ID/g
Tissue distribution: Heart ([8]; 4 hr after injection): 0.01 ± 0.02 %ID/g
Tissue distribution: Kidneys ([8]; 4 hr after injection): 35.8 ± 18.7 %ID/g
Tissue distribution: Lg Intestine ([8]; 4 hr after injection): 0.48 ± 0.13 %ID/g
Tissue distribution: Liver ([8]; 4 hr after injection): 2.17 ± 0.67 %ID/g
Tissue distribution: Lungs ([8]; 4 hr after injection): 0.08 ± 0.04 %ID/g
Tissue distribution: Sk.Muscle ([8]; 4 hr after injection): 0.08 ± 0.1 %ID/g
Tissue distribution: Sm Intestine ([8]; 4 hr after injection): 0.24 ± 0.07 %ID/g
Tissue distribution: Spleen ([8]; 4 hr after injection): 0.16 ± 0.12 %ID/g
Tissue distribution: Stomach ([8]; 4 hr after injection): 0.11 ± 0.05 %ID/g
Tissue distribution: Testes ([8]; 4 hr after injection): 0.26 ± 0.17 %ID/g
Tissue distribution: Tumor (LNCaP xenograft) ([8]; 4 hr after injection): 13.7 ± 3.1 %ID/g
Ratio Tumor:Blood ([8]; 4 hr): 220
Ratio Tumor:Skeletal Muscle ([8]; 4 hr): 182
Tissue distribution: Adipose ([8]; 8 hr after injection): 0.04 ± 0.11 %ID/g
Tissue distribution: Blood ([8]; 8 hr after injection): 0.06 ± 0.03 %ID/g
Tissue distribution: Bone ([8]; 8 hr after injection): 0.04 ± 0.04 %ID/g
Tissue distribution: Brain ([8]; 8 hr after injection): 0.02 ± 0.01 %ID/g
Tissue distribution: Heart ([8]; 8 hr after injection): 0.05 ± 0.04 %ID/g
Tissue distribution: Kidneys ([8]; 8 hr after injection): 21.5 ± 25.5 %ID/g
Tissue distribution: Lg Intestine ([8]; 8 hr after injection): 0.72 ± 0.22 %ID/g
Tissue distribution: Liver ([8]; 8 hr after injection): 1.78 ± 0.4 %ID/g
Tissue distribution: Lungs ([8]; 8 hr after injection): 0.06 ± 0.03 %ID/g
Tissue distribution: Sk.Muscle ([8]; 8 hr after injection): 0.02 ± 0.04 %ID/g
Tissue distribution: Sm Intestine ([8]; 8 hr after injection): 0.27 ± 0.06 %ID/g
Tissue distribution: Spleen ([8]; 8 hr after injection): 0.18 ± 0.11 %ID/g
Tissue distribution: Stomach ([8]; 8 hr after injection): 0.21 ± 0.08 %ID/g
Tissue distribution: Testes ([8]; 8 hr after injection): 0.18 ± 0.14 %ID/g
Tissue distribution: Tumor (LNCaP xenograft) ([8]; 8 hr after injection): 9.74 ± 3.48 %ID/g
Ratio Tumor:Blood ([8]; 8 hr): 176
Ratio Tumor:Skeletal Muscle ([8]; 8 hr): 446
Tissue distribution: Adipose ([8]; 24 hr after injection): 0.01 ± 0.11 %ID/g
Tissue distribution: Blood ([8]; 24 hr after injection): 0.01 ± 0 %ID/g
Tissue distribution: Bone ([8]; 24 hr after injection): 0.03 ± 0.05 %ID/g
Tissue distribution: Brain ([8]; 24 hr after injection): 0.02 ± 0.01 %ID/g
Tissue distribution: Heart ([8]; 24 hr after injection): 0.01 ± 0.05 %ID/g
Tissue distribution: Kidneys ([8]; 24 hr after injection): 1.1 ± 0.6 %ID/g
Tissue distribution: Lg Intestine ([8]; 24 hr after injection): 0.37 ± 0.18 %ID/g
Tissue distribution: Liver ([8]; 24 hr after injection): 0.29 ± 0.05 %ID/g
Tissue distribution: Lungs ([8]; 24 hr after injection): 0.05 ± 0.06 %ID/g
Tissue distribution: Sk.Muscle ([8]; 24 hr after injection): 0.08 ± 0.04 %ID/g
Tissue distribution: Sm Intestine ([8]; 24 hr after injection): 0.07 ± 0.02 %ID/g
Tissue distribution: Spleen ([8]; 24 hr after injection): 0.14 ± 0.1 %ID/g
Tissue distribution: Stomach ([8]; 24 hr after injection): 0.11 ± 0.05 %ID/g
Tissue distribution: Testes ([8]; 24 hr after injection): 0.05 ± 0.04 %ID/g
Tissue distribution: Tumor (LNCaP xenograft) ([8]; 24 hr after injection): 5.03 ± 1.35 %ID/g
Ratio Tumor:Blood ([8]; 24 hr): 411
Ratio Tumor:Skeletal Muscle ([8]; 24 hr): 64.5
tumor:blood ratio ([8]; after only a few hours): > 100
tumor:skeletal muscle ratio ([8]; after only a few hours): > 100
Thyroid content (deiodination) ([8]; all time points): < 1 % of the total injected dose
Binding to LNCaP tumor xenografts with co-injected PMPA [8, 11]: blocked
Binding to kidneys with co-injected PMPA [8, 11]: blocked
Blood-brain barrier crossing ([8]; from little uptake in the brain): do not cross the blood-brain barrier
Route of clearance ([8]; mouse, in vivo): primarily through urinary excretion
SPECT/CT uptake in kidney and LNCaP tumor [9]: high uptake
SPECT/CT detection of PC3 PIP (PSMA +) tumors [10]: detected
